How the values were obtained:
Experiment in all cases: microbe, parasite or virus in culture
Type in all cases: cell-based
[1] = system: influenza A virus minigenome (PB2, PB1, PA, NP; luciferase reporter) in 293T cells, RNP_Alaska; conditions: HEK-293T, 48 h
[2] = system: influenza A virus minigenome (PB2, PB1, PA, NP; luciferase reporter) in 293T cells, RNP_CAL; conditions: HEK-293T, 48 h, read-out: RNP_CAL_EC50
[3] = system: influenza A virus minigenome (PB2, PB1, PA, NP; luciferase reporter) in 293T cells, RNP_Hubei; conditions: HEK-293T, 48 h

Row | SMILES | EC50 [1] [nM] | EC50 [2] [nM] | EC50 [3] [nM]
1 | CN1CCN(C(=O)Oc2c3n(ncc2=O)[C@@H]([C@H](c2ccccc2)c2cccc(F)c2F)[C@H]2CCCN2C3=O)CC1 [Example 44, (9aR,10S)-10-((R)-(2,3-difluorophenyl)(phenyl)methyl)-3,5-dioxo-3,5,8,9,9a,10-hexahydro-7H-pyrrolo[1′,2′:4,5]pyrazino[1,2-b]pyridazin-4-yl 4-methylpiperazine-1-carboxylate] | 100 to 1000 | 100 to 1000 | < 100
2 | CC(C)(C)OC(=O)Oc1c2n(ncc1=O)[C@@H]([C@H](c1ccccc1)c1cccc(F)c1F)[C@H]1CCCN1C2=O [Example 49, tert-butyl ((9aR,10S)-10-((R)-(2,3-difluorophenyl)(phenyl)methyl)-3,5-dioxo-3,5,8,9,9a,10-hexahydro-7H-pyrrolo[1′,2′:4,5]pyrazino[1,2-b]pyridazin-4-yl) carbonate] | < 100 | < 100 | < 100
3 | O=C1c2c(O)c(=O)cnn2[C@@H]([C@H](c2ccc(F)cc2)c2cccc(C(F)(F)F)c2)[C@H]2CCCN12 [Example 20, (9aR,10S)-10-((R)-(4-fluorophenyl)(3-(trifluoromethyl)phenyl)methyl)-4-hydroxy-8,9,9a,10-tetrahydro-7H-pyrrolo[1′,2′:4,5]pyrazino[1,2-b]pyridazine-3,5-dione] | 100 to 1000 | 100 to 1000 | 100 to 1000
4 | CC(=O)Oc1c2n(ncc1=O)[C@@H]([C@H](c1cccc(F)c1)c1cccc(F)c1F)[C@H]1CCCN1C2=O [Example 105, (9aR,10S)-10-((R)-(2,3-difluorophenyl)(3-fluorophenyl)methyl)-3,5-dioxo-3,5,8,9,9a,10-hexahydro-7H-pyrrolo[1′,2′:4,5]pyrazino[1,2-b]pyridazin-4-yl acetate] | < 100 | < 100 | < 100
5 | Cc1oc(=O)oc1COc1c2n(ncc1=O)[C@@H]([C@H](c1cccc(F)c1)c1cccc(F)c1F)[C@H]1CCCN1C2=O [Example 116, (9aR,10S)-10-((R)-(2,3-difluorophenyl)(3-fluorophenyl)methyl)-4-((5-methyl-2-oxo-1,3-dioxol-4-yl)methoxy)-8,9,9a,10-tetrahydro-7H-pyrrolo[1′,2′:4,5]pyrazino[1,2-b]pyridazine-3,5-dione] | < 100 | < 100 | < 100
6 | COC(=O)OCOc1c2n(ncc1=O)[C@@H]([C@H](c1cccc(F)c1)c1cccc(F)c1F)[C@H]1CCCN1C2=O [Example 95, (((9aR,10S)-10-((R)-(2,3-difluorophenyl)(3-fluorophenyl)methyl)-3,5-dioxo-3,5,8,9,9a,10-hexahydro-7H-pyrrolo[1′,2′:4,5]pyrazino[1,2-b]pyridazin-4-yl)oxy)methyl methyl carbonate] | < 100 | < 100 | < 100
7 | Cc1c(F)cccc1[C@@H](c1cccc(F)c1)[C@H]1[C@H]2CCCN2C(=O)c2c(O)c(=O)cnn21 [Example 15, (9aR,10S)-10-((R)-(3-fluoro-2-methylphenyl)(3-fluorophenyl)methyl)-4-hydroxy-8,9,9a,10-tetrahydro-7H-pyrrolo[1′,2′:4,5]pyrazino[1,2-b]pyridazine-3,5-dione] | < 100 | < 100 | < 100
8 | COC(=O)OC(C)Oc1c2n(ncc1=O)[C@@H]([C@H](c1ccccc1)c1cccc(F)c1F)[C@H]1CCCN1C2=O (stereo partly drawn) [Example 33, 1-(((9aR,10S)-10-((R)-(2,3-difluorophenyl)(phenyl)methyl)-3,5-dioxo-3,5,8,9,9a,10-hexahydro-7H-pyrrolo[1′,2′:4,5]pyrazino[1,2-b]pyridazin-4-yl)oxy)ethyl methyl carbonate] | 100 to 1000 | < 100 | < 100
9 | CC(C)(C)C(=O)Oc1c2n(ncc1=O)[C@@H]([C@H](c1ccccc1)c1cccc(F)c1F)[C@H]1CCCN1C2=O [Example 62, (9aR,10S)-10-((R)-(2,3-difluorophenyl)(phenyl)methyl)-3,5-dioxo-3,5,8,9,9a,10-hexahydro-7H-pyrrolo[1′,2′:4,5]pyrazino[1,2-b]pyridazin-4-yl pivalate] | < 100 | < 100 | < 100
10 | COC(=O)Oc1c2n(ncc1=O)[C@@H]([C@H](c1cccc(F)c1)c1cccc(F)c1F)[C@H]1CCCN1C2=O [Example 115, (9aR,10S)-10-((R)-(2,3-difluorophenyl)(3-fluorophenyl)methyl)-3,5-dioxo-3,5,8,9,9a,10-hexahydro-7H-pyrrolo[1′,2′:4,5]pyrazino[1,2-b]pyridazin-4-yl methyl carbonate] | < 100 | < 100 | < 100
11 | CC(C)C(=O)OCOc1c2n(ncc1=O)[C@@H]([C@H](c1cccc(F)c1)c1cccc(F)c1F)[C@H]1CCCN1C2=O [Example 108, (((9aR,10S)-10-((R)-(2,3-difluorophenyl)(3-fluorophenyl)methyl)-3,5-dioxo-3,5,8,9,9a,10-hexahydro-7H-pyrrolo[1′,2′:4,5]pyrazino[1,2-b]pyridazin-4-yl)oxy)methyl isobutyrate] | < 100 | < 100 | < 100
12 | COCCOC(=O)OCOc1c2n(ncc1=O)[C@@H]([C@H](c1cccc(F)c1)c1cccc(F)c1F)[C@H]1CCCN1C2=O [Example 99, (((9aR,10S)-10-((R)-(2,3-difluorophenyl)(3-fluorophenyl)methyl)-3,5-dioxo-3,5,8,9,9a,10-hexahydro-7H-pyrrolo[1′,2′:4,5]pyrazino[1,2-b]pyridazin-4-yl)oxy)methyl (2-methoxyethyl) carbonate] | < 100 | < 100 | < 100
13 | O=C1c2c(O)c(=O)cnn2[C@@H](C(c2cccc(F)c2)c2cccc(F)c2)[C@H]2CC(F)(F)CN12 [Example 13, (9aR,10S)-10-(bis(3-fluorophenyl)methyl)-8,8-difluoro-4-hydroxy-8,9,9a,10-tetrahydro-7H-pyrrolo[1′,2′:4,5]pyrazino[1,2-b]pyridazine-3,5-dione] | ≥ 1000 | ≥ 1000 | 100 to 1000
14 | O=C1c2c(O)c(=O)cnn2[C@@H]([C@@H](c2ccccc2F)c2cccc(F)c2F)[C@H]2CCCN12 [Example 28, (9aR,10S)-10-((S)-(2,3-difluorophenyl)(2-fluorophenyl)methyl)-4-hydroxy-8,9,9a,10-tetrahydro-7H-pyrrolo[1′,2′:4,5]pyrazino[1,2-b]pyridazine-3,5-dione] | < 100 | < 100 | < 100
15 | Cc1oc(=O)oc1COc1c2n(ncc1=O)[C@@H]([C@H](c1ccccc1)c1cccc(F)c1F)[C@H]1CCCN1C2=O [Example 43, (9aR,10S)-10-((R)-(2,3-difluorophenyl)(phenyl)methyl)-4-((5-methyl-2-oxo-1,3-dioxol-4-yl)methoxy)-8,9,9a,10-tetrahydro-7H-pyrrolo[1′,2′:4,5]pyrazino[1,2-b]pyridazine-3,5-dione] | < 100 | < 100 | < 100
16 | O=C(Oc1c2n(ncc1=O)[C@@H]([C@H](c1cccc(F)c1)c1cccc(F)c1F)[C@H]1CCCN1C2=O)N1CCCCC1 [Example 98, (9aR,10S)-10-((R)-(2,3-difluorophenyl)(3-fluorophenyl)methyl)-3,5-dioxo-3,5,8,9,9a,10-hexahydro-7H-pyrrolo[1′,2′:4,5]pyrazino[1,2-b]pyridazin-4-yl piperidine-1-carboxylate] | ≥ 1000 | ≥ 1000 | ≥ 1000
17 | CC(=O)OCOc1c2n(ncc1=O)[C@@H]([C@H](c1cccc(F)c1)c1cccc(F)c1F)[C@H]1CCCN1C2=O [Example 114, (((9aR,10S)-10-((R)-(2,3-difluorophenyl)(3-fluorophenyl)methyl)-3,5-dioxo-3,5,8,9,9a,10-hexahydro-7H-pyrrolo[1′,2′:4,5]pyrazino[1,2-b]pyridazin-4-yl)oxy)methyl acetate] | < 100 | < 100 | < 100
18 | O=C1c2c(O)c(=O)cnn2[C@@H]([C@H](c2ccc(F)cc2)c2ccc(OC(F)(F)F)cc2)[C@H]2CCCN12 [Example 23, (9aR,10S)-10-((S)-(4-fluorophenyl)(4-(trifluoromethoxy)phenyl)methyl)-4-hydroxy-8,9,9a,10-tetrahydro-7H-pyrrolo[1′,2′:4,5]pyrazino[1,2-b]pyridazine-3,5-dione] | ≥ 1000 | 100 to 1000 | 100 to 1000
19 | O=C1c2c(O)c(=O)cnn2[C@@H]([C@@H](c2ccc(F)cc2)c2cccc(OC(F)(F)F)c2)[C@H]2CCCN12 [Example 4, (9aR,10S)-10-((S)-(4-fluorophenyl)(3-(trifluoromethoxy)phenyl)methyl)-4-hydroxy-8,9,9a,10-tetrahydro-7H-pyrrolo[1′,2′:4,5]pyrazino[1,2-b]pyridazine-3,5-dione] | 100 to 1000 | < 100 | < 100
20 | O=C1c2c(O)c(=O)cnn2[C@@H]([C@@H](c2ccc(F)cc2)c2ccc(OC(F)(F)F)cc2)[C@H]2CCCN12 [Example 5, (9aR,10S)-10-((R)-(4-fluorophenyl)(4-(trifluoromethoxy)phenyl)methyl)-4-hydroxy-8,9,9a,10-tetrahydro-7H-pyrrolo[1′,2′:4,5]pyrazino[1,2-b]pyridazine-3,5-dione] | 100 to 1000 | 100 to 1000 | 100 to 1000
21 | COc1c2n(ncc1=O)[C@@H]([C@H](c1ccccc1)c1cccc(F)c1F)[C@H]1CCCN1C2=O [Example 38, (9aR,10S)-10-((R)-(2,3-difluorophenyl)(phenyl)methyl)-4-methoxy-8,9,9a,10-tetrahydro-7H-pyrrolo[1′,2′:4,5]pyrazino[1,2-b]pyridazine-3,5-dione] | ≥ 1000 |  | ≥ 1000
